Assay results from US9873724B2, “Pro-angiogenic peptides and peptide conjugates” (Yissum Research Development Company of the Hebrew …, priority 2013, dated 2018).
Values joined by “and” are separate entries in the source; they are usually repeats but may differ in a detail not shown here. Identical values can stand only once. Square brackets hold non-standard residues; d marks the D form. * marks the point of attachment. Myristoyl = CCCCCCCCCCCCCC(=O)*; Nle = CCCC[C@H](N)C(=O)O

Key:
mouse aortic rings = experiment: Aortic ring assay ex-vivo (capillary sprouting from mouse aortic rings in collagen; repeated with VEGF); assay type: cell-based; set-up: Capillary length 10 μM (10 μM) / Capillary length 20 μM / Capillary length 10 μM: unit not given here
Procedure: Thoracic aortas were dissected from 7- to 8-week-old male SABRA mice. The aortas were immediately transferred to Petri dishes containing BIO-MPM-1. The adventitia and small vessels around the aorta were carefully removed under a dissecting microscope, and transverse cuts of 0.75 mm were made. The resulting aortic rings were extensively rinsed and incubated overnight in BIO-MPM-1 containing penicillin-streptomycin. Subsequently, the rings were embedded in 50 μl collagen mix (7 parts collagen, 1 part 10× Eagle minimal essential medium, MEM, and 2 parts 0.15 M sodium bicarbonate) in 96-well plates (Nunc, Rochester, N.Y.). Solidification of the collagen solution was achieved by raising the pH to neutral and the temperature to 37° C. 150 μl BIO-MPM-1 containing penicillin-streptomycin and the tested factors or peptides) was added to the embedded rings, and the plates were incubated at 37° C. in a humidified 10% CO2 atmosphere. Medium containing factors and/or peptides was refreshed at days 4 and 8. After two weeks, the rings were fixed with 4% formaldehyde for 24 hours, followed by staining with crystal violet (0.02%) dissolved in ethanol and extensive washing to remove excessive stain. The effect of factors and peptides was examined in 4 wells (4 rings of mouse aortic rings) per assay. Micrographs of representative rings were taken using a digital camera (Nikon, Tokyo, Japan). Morphometric analysis of sprouting was performed manually using Image-Pro 4.5 software (Media Cybernetics, Silver Spring, Md.) according to Nissanov et al. (Lab Invest. 1995; 73:734-739). Nonstained rings were subjected to paraffin sections and hematoxylin and eosin (H&E) staining.
FIGS. 1A-1C represents aortic ring capillary length and FIGS. 2A-2C aortic ring capillary width. In the table: K-Flu is a Lysine residue coupled with a fluorescein moiety, 4BrPhe is 4-bromo-Phenylalanine, Dod is Dodecanoyl, Dec designates Decanoyl, Oct is Octanoyl, and Hex is Hexanoyl.
The aortic ring assay was repeated in the presence of 10 μM concentration of peptides AB-033 (SEQ ID NO: 13) and AB-034 (SEQ ID NO: 14) together with the pro-angiogenetic protein VEGF.

[1] = test system: blood vessels of mice (Evans-Blue leakage); experiment: Inhibition of blood-vessel leakiness (Evans-Blue leakage in mice); assay type: in vivo, mouse
Procedure: The peptide of SEQ ID NO: 12 (Myr-Gly-Nle-Arg-Pro-Tyr-NH2), or vehicle (10% PEG-400, 90% DDW), were injected i.p. to mice, in an amount of 20 or 40 mg/Kg. 5 min, 10 min, 1 hr or 4 hrs later, 0.2 ml per 25 g mouse (40 mg/Kg) of 5 mg/ml Evans-Blue solution in double distilled water (DDW) was injected i.p. The experiment was terminated after 30 min and skull was opened to view the brain surface (“Neurosurgery”) and assess the amount of Evans-Blue leaking from blood vessels.
Principle of peripheral vessels staining: Evans-Blue; it is a poly-anionic compound having a M.W. of 960 Dalton, that binds tightly to albumin and being used to track vessel-permeability. In case of blood-vessel leakiness, the Evans-Blue-albumin complex escapes from the blood-stream into the surrounding interstitial fluid with the result of blue coloring of the extremities and the bluish appearance at the brain surface.
In a specific experiment, 40 mg/kg of peptide of SEQ ID NO: 12 or vehicle were injected, each to 2 mice, i.p. 5 min before color injection. Evans-blue, at 40 mg/kg was then injected i.p. and 30 min later “Neurosurgery” was performed and the escape of the color from the blood stream was monitored as manifested by the bluish appearance of the brain surrounding tissue.
In another experiment, 40 mg/kg of peptide SEQ ID NO: 12 were injected to mice, i.p. 1 or 4 hours before color injection (Evans-blue, 40 mg/kg i.p. for 30 minutes). Control mice received i.p. injection of vehicle ([…]) 1 hour before color injection.

Q: Which “capillary / vessel formation (in words)” value (mouse aortic rings; aortic ring assay, FIGS. 1A-1C and 2A-2C) does the source give for “Myr-Gly-Nle-Arg-Pro-Tyr-NH2 (Myristoyl-G[Nle]RPY-NH2; SMILES CCCCCCCCCCCCCC(=O)NCC(=O)N[C@@H](CCCC)C(=O)N[C@@H](CCCNC(=N)N)C(=O)N1CCC[C@H]1C(=O)N[C@@H](Cc1ccc(O)cc1)C(N)=O) [AB-017]” here?
A: The value was “induce massive capillary formation”.

Q: What about the “Capillary length 10 μM” value (mouse aortic rings; peptide 10 μM, rings fixed after two weeks) of the same substance?
A: Its value is 3,100 and 3,770.

Q: And the “Capillary length 20 μM” value (mouse aortic rings; peptide 20 μM, rings fixed after two weeks)?
A: Its value is 11,200 and 15,300.

Q: What about the “Evans-Blue leaking from blood vessels (brain and periphery)” value ([1]; 20 mg/kg i.p. 10 min before Evans-blue 40 mg/kg i.p., 30 minutes) of the same substance?
A: The value was “no color was leaking”.

Q: And the “Evans-Blue leaking from blood vessels (brain)” value (shortened to “Evans-Blue leaking … (brain)”) ([1]; 40 mg/kg i.p. 5 min before Evans-blue 40 mg/kg i.p., read 30 min later)?
A: The value was “no color was leaking”.

Q: What about the “Evans-Blue leaking … (brain)” value ([1]; 40 mg/kg i.p. 1 hr before Evans-blue 40 mg/kg i.p., 30 minutes) of the same substance?
A: Its value is “no color was leaking”.

Q: And the “Evans-Blue leaking … (brain)” value ([1]; 40 mg/kg i.p. 4 hrs before Evans-blue 40 mg/kg i.p., 30 minutes)?
A: Its value is “only a partial protection”.
